Experimental data from PubChem BioAssay AID330 (DTP/NCI, 2004).
“And” between values parts separate entries of the source, which are not always exact repeats. Identical values can stand only once. Toxic doses and inconclusive results are not listed.

Test system: P388 leukemia ip, CD2F1 mice, survival T/C
Assay: NCI In Vivo Anticancer Drug Screen. Data for tumor model P388 Leukemia (intraperitoneal) in CD2F1 (CDF1) mice
Conditions: endpoint: median survival time, higher = longer survival
In short: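 Mice carrying the transplanted tumor received test compound or vehicle. Survival was recorded in each group, and the value is the treated-group measurement divided by that of the vehicle-treated control group.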

In the case of `CCN(CC)CCNC(=S)NNc1nc(C)ccc1[N+](=O)[O-]`, the T/C (dose: 12.5 mg/kg/injection, schedule: Q01DX009 (ip), vehicle: Klucel (hydroxypropylcellulose) (HPC)) was 99 % of control, the T/C (dose: 25.0 mg/kg/injection, schedule: Q01DX009 (ip), vehicle: Klucel (hydroxypropylcellulose) (HPC)) was 95 % of control and the T/C (dose: 50.0 mg/kg/injection, schedule: Q01DX009 (ip), vehicle: Klucel (hydroxypropylcellulose) (HPC)) was 87 % of control and 97 % of control.
For `O=N[O-].O=N[O-].O=N[O-].[Co+3].[NH-]CC[N-]CC[NH-]`, the T/C (dose: 12.5 mg/kg/injection, schedule: Q01DX009 (ip), vehicle: saline with Tween-80) was 95 % of control, the T/C (dose: 25.0 mg/kg/injection, schedule: Q01DX009 (ip), vehicle: saline with Tween-80) was 104 % of control and the T/C (dose: 50.0 mg/kg/injection, schedule: Q01DX009 (ip), vehicle: saline with Tween-80) was 114 % of control.
In the case of `CCCCCCCCCCCCCCCCCC(=O)NC(CC(=O)OCCCCCC)c1ccc(N(CCCl)CCCl)cc1` (configuration not stated), the T/C (dose: 4.3 mg/kg/injection, schedule: Q01DX009 (ip), vehicle: saline) was 163 % of control, the T/C (dose: 8.6 mg/kg/injection, schedule: Q01DX009 (ip), vehicle: saline) was 186 % of control and the T/C (dose: 8.6 mg/kg/injection, schedule: Q03HX008 (ip), vehicle: saline) was 150 % of control. The T/C (dose: 17.2 mg/kg/injection, schedule: Q01DX009 (ip), vehicle: saline) was 213 % of control, the T/C (dose: 17.2 mg/kg/injection, schedule: Q03HX008 (ip), vehicle: saline) was 165 % of control and the T/C (dose: 34.4 mg/kg/injection, schedule: Q03HX008 (ip), vehicle: saline) was 200 % of control. The T/C (dose: 34.5 mg/kg/injection, schedule: Q03HX008 (ip), vehicle: saline) was 250 % of control, the T/C (dose: 68.8 mg/kg/injection, schedule: Q03HX008 (ip), vehicle: saline) was 315 % of control and the T/C (dose: 138.0 mg/kg/injection, schedule: Q03HX008 (ip), vehicle: saline) was 168 % of control. For the same compound, the T/C (dose: 275.0 mg/kg/injection, schedule: Q03HX008 (ip), vehicle: saline) was 163 % of control.
With `Cc1ccccc1Nc1nc(-c2ccccc2)nc(N)c1N=O` the T/C (dose: 100.0 mg/kg/injection, schedule: Q04DX003 (ip), vehicle: saline) was 100 % of control, the T/C (dose: 200.0 mg/kg/injection, schedule: Q04DX003 (ip), vehicle: saline) was 98 % of control and the T/C (dose: 400.0 mg/kg/injection, schedule: Q04DX003 (ip), vehicle: saline) was 98 % of control.
With `O=C1N[C@@H]([C@H]2CC[C@H](Cl)CN2)C(=O)N[C@H]1[C@H]1CC[C@H](Cl)CN1` the T/C (dose: 0.25 mg/kg/injection, schedule: Q01DX005 (iv), vehicle: saline) was 118 % of control, the T/C (dose: 0.39 mg/kg/injection, schedule: Q01DX009 (ip), vehicle: water) was 158 % of control and 182 % of control and the T/C (dose: 0.5 mg/kg/injection, schedule: Q01DX005 (iv), vehicle: saline) was 118 % of control. The T/C (dose: 0.78 mg/kg/injection, schedule: Q01DX009 (ip), vehicle: water) was 184 % of control and 214 % of control, the T/C (dose: 1.0 mg/kg/injection, schedule: Q01DX001 (ip), vehicle: saline) was 123 % of control and the T/C (dose: 1.0 mg/kg/injection, schedule: Q01DX005 (ip), vehicle: saline) was 181 % of control. For the same compound, the T/C (dose: 1.0 mg/kg/injection, schedule: Q01DX005 (iv), vehicle: saline) was 120 % of control, the T/C (dose: 1.56 mg/kg/injection, schedule: Q01DX009 (ip), vehicle: water) was 122 % of control and 223 % of control and the T/C (dose: 2.0 mg/kg/injection, schedule: Q01DX001 (ip), vehicle: saline) was 123 % of control. The T/C (dose: 2.0 mg/kg/injection, schedule: Q01DX005 (ip), vehicle: saline) was 227 % of control, the T/C (dose: 2.0 mg/kg/injection, schedule: Q01DX005 (iv), vehicle: saline) was 157 % of control and the T/C (dose: 2.0 mg/kg/injection, schedule: Q01DX005 (oral), vehicle: saline) was 180 % of control. The T/C (dose: 4.0 mg/kg/injection, schedule: Q01DX001 (ip), vehicle: saline) was 151 % of control, the T/C (dose: 4.0 mg/kg/injection, schedule: Q01DX005 (ip), vehicle: saline) was 100 % of control and the T/C (dose: 4.0 mg/kg/injection, schedule: Q01DX005 (iv), vehicle: saline) was 200 % of control. The T/C (dose: 4.4 mg/kg/injection, schedule: Q01DX001 (ip), vehicle: saline) was 172 % of control and 176 % of control and 177 % of control, the T/C (dose: 6.7 mg/kg/injection, schedule: Q01DX001 (ip), vehicle: saline) was 172 % of control and 190 % of control and 211 % of control and the T/C (dose: 10.0 mg/kg/injection, schedule: Q01DX001 (ip), vehicle: saline) was 216 % of control and 220 % of control and 250 % of control. The T/C (dose: 16.0 mg/kg/injection, schedule: Q01DX001 (ip), vehicle: saline) was 209 % of control.
`C=C(C)C(=O)OC1C(C(C)CCCO)=C(CO)CC2OC(=O)C(=C)C21` (configuration not stated) was tested, and the T/C (dose: 3.12 mg/kg/injection, schedule: Q01DX009 (ip), vehicle: saline + alcohol) was 108 % of control, the T/C (dose: 6.25 mg/kg/injection, schedule: Q01DX009 (ip), vehicle: saline + alcohol) was 112 % of control and the T/C (dose: 12.5 mg/kg/injection, schedule: Q01DX009 (ip), vehicle: saline + alcohol) was 118 % of control. For the same compound, the T/C (dose: 25.0 mg/kg/injection, schedule: Q01DX009 (ip), vehicle: saline + alcohol) was 111 % of control.
